From patent publication US9556205B2, “Fungicide N-[(trisubstitutedsilyl)methyl]-carboxamide derivatives” (BAYER INTELLECTUAL PROPERTY GMBH, priority 2010, dated 2017)

Key:
Phakopsora pachyrhizi = assay: In vivo protective test on Phakopsora pachyrhizi (soybean rust); settings: 250 ppm of active ingredient, evaluated 11 days after inoculation
Description: Solvent: 28.5 parts by weight of acetone
Emulsifier: 1.5 parts by weight of polyoxyethylene alkyl phenyl ether
(§1) To produce a suitable preparation of active compound, 1 part by weight of active compound is mixed with the stated amounts of solvent and emulsifier, and the concentrate is diluted with water to the desired concentration.
To test for protective activity, young plants are sprayed with the preparation of active compound at the stated rate of application. One day after spraying, the plants are inoculated with an aqueous spore suspension of the causal agent of soybean rust (Phakopsora pachyrhizi). The plants are then placed in a greenhouse at approximately 20° C. and a relative atmospheric humidity of approximately 80%.
The test is evaluated 11 days after the inoculation. 0% means an efficacy which corresponds to that of the control, while an efficacy of 100% means that no disease is observed.
Under these conditions, good (at least 80%) to total protection is observed at a dose of 250 ppm of active ingredient with the following compounds from table G: […]

[1] = test system: Aflatoxins production by Aspergillus parasiticus; format: cell-based
Botrytis cinerea = assay: In vivo preventive test on Botrytis cinerea (beans); settings: 500 ppm of active ingredient, lesion size 2 days after inoculation
Description: Solvent: 24.5 parts by weight of acetone
• 24.5 parts by weight of N,N-dimethylacetamide Emulsifier: 1 part by weight of alkylaryl polyglycol ether
as §1
To test for protective activity, young plants are sprayed with the preparation of active compound. After the spray coating has dried on, 2 small pieces of agar covered with growth of Botrytis cinerea are placed on each leaf. The inoculated plants are placed in a darkened chamber at 20° C. and a relative atmospheric humidity of 100%.
2 days after the inoculation, the size of the lesions on the leaves is evaluated. 0% means an efficacy which corresponds to that of the control, while an efficacy of 100% means that no disease is observed. Under these conditions, excellent (at least 95%) to total protection is observed at a dose of 500 ppm of active ingredient with the following compounds from table C: […]

Leptosphaeria nodorum = assay: In vivo preventive test on Leptosphaeria nodorum (wheat); settings: 500 ppm of active ingredient, evaluated 8 days after inoculation
Description: Solvent: 49 parts by weight of N,N-dimethylacetamide Emulsifier: 1 part by weight of alkylaryl polyglycol ether To produce a suitable preparation of active compound, 1 part by weight of active compound or the compound combination is mixed with the stated amounts of solvent and emulsifier, and the concentrate is diluted with water to the desired concentration. To test for protective activity, young plants are sprayed with a preparation of active compound or active compound combination at the stated rate of application. After the spray coating has dried on, the plants are sprayed with a spore suspension of Leptosphaeria nodorum. […] The plants are placed in a greenhouse at a temperature of approximately 15° C. and a relative atmospheric humidity of approximately 80%.

Pyrenophora teres = assay: In vivo preventive test on Pyrenophora teres (barley), Example F; settings: for Efficacy: 500 ppm of active ingredient, evaluated 7-9 days after inoculation; for disease control: 500 ppm, comparison with prior-art compound
Description: (§2) Solvent: 49 parts by weight of N,N-dimethylformamide Emulsifier: 1 part by weight of alkylaryl polyglycol ether To produce a suitable preparation of active compound, 1 part by weight of active compound is mixed with the stated amounts of solvent and emulsifier, and the concentrate is diluted with water to the desired concentration. To test for preventive activity, young plants are sprayed with the preparation of active compound at the stated rate of application. One day after this treatment, the plants are inoculated with an aqueous spore suspension of Pyrenophora teres. […] Then the plants are placed in a greenhouse at a temperature of approximately 20° C. and a relative atmospheric humidity of approximately 80%.

Venturia inaequalis = assay: In vivo preventive test on Venturia inaequalis (apple scab); settings: 100 ppm of active ingredient, evaluated 10 days after inoculation
Description: Solvent: 24.5 parts by weight of acetone • 24.5 parts by weight of N,N-dimethylacetamide Emulsifier: 1 part by weight of alkylaryl polyglycol ether To produce a suitable preparation of active compound, 1 part by weight of active compound is mixed with the stated amounts of solvent and emulsifier, and the concentrate is diluted with water to the desired concentration. To test for protective activity, young plants are sprayed with the preparation of active compound at the stated rate of application. […] The plants are then placed in a greenhouse at approximately 21° C. and a relative atmospheric humidity of approximately 90%.

Septoria tritici = assay: In vivo preventive test on Septoria tritici (wheat); settings: 500 ppm of active ingredient, evaluated 21 days after inoculation
Description: Solvent: 49 parts by weight of N,N-dimethylacetamide Emulsifier: 1 part by weight of alkylaryl polyglycol ether To produce a suitable preparation of active compound, 1 part by weight of active compound or active compound combination is mixed with the stated amounts of solvent and emulsifier, and the concentrate is diluted with water to the desired concentration. To test for preventive activity, young plants are sprayed with the preparation of active compound or active compound combination at the stated rate of application. After the spray coating has dried on, the plants are sprayed with a spore suspension of Septoria tritici. […] The plants are placed in a greenhouse at a temperature of approximately 15° C. and a relative atmospheric humidity of approximately 80%.

Alternaria solani = assay: In vivo preventive test on Alternaria solani (tomato); settings: for Efficacy: 500 ppm of active ingredient, evaluated 7 days after inoculation; for disease control: 500 ppm, comparison with prior-art compound
Description: as §2, with “Alkylarylpolyglycolether” for “alkylaryl polyglycol ether”, “Alternaria solani.” for “Pyrenophora teres.”, “an incubation cabinet” for “a greenhouse”, “at” for “at a temperature of”, “96%.” for “approximately 80%.”

[2] = log P by HPLC on reversed-phase column (C18), EEC Directive 79/831 Annex V.A8; format: physicochemical; settings: 40° C., 0.1% aqueous formic acid and acetonitrile, linear gradient 10% to 90% acetonitrile
Description: In table 1, the log P values were determined in accordance with EEC Directive 79/831 Annex V.A8 by HPLC (High Performance Liquid Chromatography) on a reversed-phase column (C18), using the method described below:
Temperature: 40° C.; Mobile phases: 0.1% aqueous formic acid and acetonitrile; linear gradient from 10% acetonitrile to 90% acetonitrile.
Calibration was carried out using unbranched alkan-2-ones (comprising 3 to 16 carbon atoms) with known log P values (determination of the log P values by the retention times using linear interpolation between two successive alkanones). lambda-max-values were determined using UV-spectra from 200 nm to 400 nm and the peak values of the chromatographic signals.

Aspergillus parasiticus = format: cell-based; settings: 7 days at 20° C., OD620nm
Puccinia recondita [3] = assay: In vivo preventive test on Puccinia recondita (wheat), Example H; settings: 500 ppm, evaluated 7-9 days after inoculation
Description: as §2, with “N,N-dimethylacetamide” for “N,N-dimethylformamide”, “Puccinia recondita.” for “Pyrenophora teres.”

Puccinia recondita [4] = assay: In vivo test on Puccinia recondita (wheat brown rust), Example I; settings: wheat (Scipion variety), 500 ppm of active ingredient, grading 10 days after contamination

Compound	Efficacy (Phakopsora pachyrhizi) [%]	% Inhibition of Aflatoxin at 50 μM [1] [%]	Efficacy (Botrytis cinerea) [%]	Efficacy (Leptosphaeria nodorum) [%]	Efficacy (Pyrenophora teres) [%]	Efficacy (Venturia inaequalis) [%]	Efficacy (Septoria tritici) [%]	Efficacy (Alternaria solani) [%]	logP [2]	% Inhibition of fungal growth at 50 μM (Aspergillus parasiticus) [%]	disease control (Puccinia recondita [3]) [%]	disease control (Pyrenophora teres) [%]	disease control (Alternaria solani) [%]	protection (Puccinia recondita [4])
Cn1nc(C(F)F)c(C(=O)N(C[Si](C)(C)c2cc(Cl)cc(Cl)c2)C2CC2)c1F [Example 52]	99	100	100	100	100	100	100	100	4.78	100	–	–	–	–
C[Si](C)(CN(C(=O)c1ccco1)C1CCCCC1)c1ccccc1 [N-cyclohexyl-N-{[dimethyl(phenyl)silyl]methyl}-2-furamide, reference compound]	–	–	–	–	–	–	–	–	–	–	10	0	0	–
Cn1nc(C(F)F)c(C(=O)N(C[Si](C)(C)c2ccc(Cl)cc2Cl)C2CC2)c1F [Example 38]	85	100	95	100	100	100	100	94	4.78	100	–	–	–	–
Cn1nc(C(F)F)c(C(=O)N(C[Si](C)(C)c2cccc(Cl)c2)C2CC2)c1F [Example 31]	100	100	95	100	100	100	100	100	4.18	100	–	–	–	–
CCc1nn(C)c(F)c1C(=O)N(C[Si](C)(C)c1ccccc1)C1CC1 [Example 7]	–	–	–	–	–	–	–	–	3.64	–	–	–	–	at least 70%
Cn1nc(C(F)F)c(C(=O)N(C[Si](C)(C)c2ccccc2Cl)C2CC2)c1F [Example 18]	80	100	–	100	100	99	100	100	4.13	100	–	–	–	–
Cn1nc(C(F)F)c(C(=O)N(C[Si](C)(C)c2ccccc2)C2CCCCC2)c1F [Example 11]	–	–	–	–	70	–	–	90	4.86	–	80	70	90	–
Cc1cc(C(=O)N(C[Si](C)(C)c2ccccc2)C2CCCCC2)c(C)o1 [Example 12]	–	–	–	–	70	–	–	80	5.62	–	40	70	80	–
